Results from patent publication US9241954B2, “Lipopolysaccharide of ochrobactrum intermedium and their use as immunostimulant of mammalians” (LABORATORIOS OVEJERO, S.A., priority 2009, dated 2016).

Columns and labels:
severe sepsis patients = conditions: cited from earlier work
[1] = system: CD8 and CD4 T-cells (spleen cells)

Row | Compound | proinflammatory cytokine levels (severe sepsis patients; human, in vivo) | mortality (severe sepsis patients; severe sepsis patients (TAK-242: subgroup with high IL-6 levels)) | toxicity for CD8 and CD4 T-cells / spleen cells [1]
1 | CCOC(=O)C1=CCCC[C@H]1S(=O)(=O)Nc1ccc(F)cc1Cl [TAK-242] | decrease proinflammatory cytokine levels | decrease mortality | –
2 | Lipopolysaccharide from Ochrobactrum intermedium strain LMG3306 [IM] | – | – | no toxic at all
